The results in this text go back to patent publication US20260199204A1, “ANTIMICROBIAL COMBINATIONS” (Clariant International Ltd, priority 2022, published 2026).

Common to all, as to format: cell-based
Test [1] concerns all test organisms (P.a., S.a., E.c., C.a., A.b.). Put plainly: Challenge test in O/W-cream gel, overall result. Also on record: key to Challenge test criteria for all test organisms: An A-criteria is related to an excellent protection of a formulation; B-criteria is needed to show sufficient protection but additional risk eliminating measures related to packaging and raw material quality need to be applied; With an F-criteria for any of the organism tested the whole challenge test is failed and the preservation/protection of the formulation is not sufficient. To be noted: pH 7. From the text: (§1) Following examples show challenge test results that were done according to EUROPEAN PHARMACOPOEIA 10TH EDITION. Chapter 5.1.3. As representative microorganisms the following test germs were used: Pseudomonas aeruginosa (gram-negative organism, short “P.a.”), Staphylococcus aureus (gram-positive organism, short “S.a.”), Escherichia coli (gram negative organism, short “E.c.”), Candida albicans (yeast, short “C.a.”) and Aspergillus brasiliensis (mold, short “A.b.”). The A criteria express the recommended efficacy to be achieved. In justified cases where the A criteria cannot be attained, for example for reasons of an increased risk of adverse reactions, the B criteria must be satisfied. An A-criteria is related to an excellent protection of a formulation, B-criteria is needed to show sufficient protection but additional risk eliminating measures related to packaging and raw material quality need to be applied. With an F-criteria for any of the organism tested the whole challenge test is failed and the preservation/protection of the formulation is not sufficient. As a reference an unpreserved sample of the respective formulation was tested as well. As a test system a difficult to preserve formulation was used: Leave-on: O/W-Cream Gel [table]

Test [2] deals with Pseudomonas aeruginosa (P.a.). Put plainly: Challenge test (European Pharmacopoeia 10th Edition, 5.1.3) in O/W-cream gel. To be noted: pH 7. Also on record: key: An A-criteria is related to an excellent protection of a formulation; B-criteria is needed to show sufficient protection but additional risk eliminating measures related to packaging and raw material quality need to be applied; With an F-criteria for any of the organism tested the whole challenge test is failed and the preservation/protection of the formulation is not sufficient.
Description: as §1

Another test concerns Candida albicans (C.a.). The description is as above. On the set-up: key: An A-criteria is related to an excellent protection of a formulation; B-criteria is needed to show sufficient protection but additional risk eliminating measures related to packaging and raw material quality need to be applied; With an F-criteria for any of the organism tested the whole challenge test is failed and the preservation/protection of the formulation is not sufficient. To be noted: pH 7.
Description: as §1

For test [3], the system named is Staphylococcus aureus (S.a.). The description is as above. Also on record: key: An A-criteria is related to an excellent protection of a formulation; B-criteria is needed to show sufficient protection but additional risk eliminating measures related to packaging and raw material quality need to be applied; With an F-criteria for any of the organism tested the whole challenge test is failed and the preservation/protection of the formulation is not sufficient. To be noted: pH 7.
Description: as §1

The next test concerns Escherichia coli (E.c.). The description is as above. On the set-up: key: An A-criteria is related to an excellent protection of a formulation; B-criteria is needed to show sufficient protection but additional risk eliminating measures related to packaging and raw material quality need to be applied; With an F-criteria for any of the organism tested the whole challenge test is failed and the preservation/protection of the formulation is not sufficient.
Description: as §1

Test [4] deals with Aspergillus brasiliensis (A.b.). The description is as above. On the set-up: key: An A-criteria is related to an excellent protection of a formulation; B-criteria is needed to show sufficient protection but additional risk eliminating measures related to packaging and raw material quality need to be applied; With an F-criteria for any of the organism tested the whole challenge test is failed and the preservation/protection of the formulation is not sufficient. To be noted: pH 7.
Description: as §1

For test [5], the system named is Klebsiella pneumoniae DSM 786. Put plainly: MIC agar dilution test, bacteria. The settings on record: Klebsiella pneumoniae (B) DSM 786, Caso-Agar, pH 7. The protocol:
(§2) The antimicrobial properties of Velsan Flex, 4-Hydroxyacetophenone and a combination of both against bacteria, yeast and mold were investigated: For testing the inhibition of bacteria, Velsan Flex, 4-Hydroxyacetophenone or a combination of both was diluted in butylpolyglycol and added in different concentrations to liquid Caso-Agar at 50° C. and was buffered to pH 7 (+/−0.2). For testing the inhibition of yeast and mold, Velsan Flex, 4-Hydroxyacetophenone or a combination of both was diluted in butylpolyglycol and added in different concentrations to liquid Sabouraud-4% Dextrose-Agar at 50° C. and was buffered to pH 5.6 (+/−0.2). Each of the solutions was poured into a petri-dish and inoculated with the same amount of bacteria, yeast or mold respectively. The minimum inhibitory concentration (MIC) is the lowest concentration of the respective composition that inhibits the growth of the respective microorganism where the next lowest dilution fails to inhibit the growth of said microorganism.
(§3) In a similar experiment as described above the antimicrobial properties of Velsan SC, 4-Hydroxyacetophenone and a combination of both against bacteria, yeast and mold were investigated.

Test [6] has as its system Staphylococcus aureus DSM 799. Briefly: MIC agar dilution test, bacteria. The settings on record: Staphylococcus aureus (B) DSM 799, Caso-Agar, pH 7. The protocol:
as §2, §3
On the technique in general: In agar dilution, organisms are placed on agar that contains the substance at set levels.

For test [7], the system named is Burkholderia cepacia DSM 7288. Briefly: MIC agar dilution test, bacteria. To be noted: Burkholderia cepacia (B) DSM 7288, Caso-Agar, pH 7.
Test [8] deals with Aspergillus terreus IMI 45543. Briefly: MIC agar dilution test, mold. The settings on record: Aspergillus terreus (M) IMI 45543, Sabouraud-4% Dextrose-Agar, pH 5.6. The protocol:
as §2, §3

Test [9] relates to Aspergillus brasiliensis DSM 1988. Briefly: MIC agar dilution test, mold. The settings on record: Aspergillus brasiliensis (M) DSM 1988, Sabouraud-4% Dextrose-Agar, pH 5.6. The method, then: as §2, §3
Test [10] has as its system Fusarium solani IMI 322444. Put plainly: MIC agar dilution test, mold. The settings on record: Fusarium solani (M) IMI 322444, Sabouraud-4% Dextrose-Agar, pH 5.6. The protocol: as §2, §3
For test [11], the system named is Penicillium minioluteum/Penicillium purpurogenum ATCC 52427. Briefly: MIC agar dilution test, mold. To be noted: Penicillium minioluteum/Penicillium purpurogenum (M) ATCC 52427, Sabouraud-4% Dextrose-Agar, pH 5.6. The protocol:
as §2, §3

In test [12] the test system is Candida parapsilosis DSM 5784. Briefly: MIC agar dilution test, yeast. To be noted: Lodderomyces parapsilosis, DSM5784; Candida parapsilosis (Y) DSM 5784; Sabouraud-4% Dextrose-Agar, pH 5.6. The protocol: as §2, with “microorganism. The experiments were carried out in scientifically fair conditions so that a proper comparison could be made and conclusions drawn.” for “microorganism.”

Test [13] has as its system Candida albicans DSM 1386. Briefly: MIC agar dilution test, yeast. To be noted: Candida albicans (Y) DSM 1386, Sabouraud-4% Dextrose-Agar, pH 5.6. The method, then:
as §2, §3

The subject of test [14] is Saccharomyces cerevisiae DSM 70449. Briefly: MIC agar dilution test, yeast. To be noted: Saccharomyces cerevisiae (Y) DSM 70449, Sabouraud-4% Dextrose-Agar, pH 5.6. The method, then: as §2, §3

≈ marks a conversion by molar mass, not a printed value. Read-outs that look alike come from different tables or passages of the source.

Consider `CC(=O)c1ccc(O)cc1` [4-Hydroxyacetophenone], for which, in test [1] (0.25% as single preservative (entry 5)), the “Challenge test criteria for all test organisms” value is listed as “F”. The “Ability to preserve the formulation” value in [1] (use level 0.5%, alone (entry 6)) is listed as “not sufficient to preserve the formulation”. Also, the figures for the “Challenge test result P.a.” value in test [2] (concentration 0.25%) and in [2] (concentration 0.5%) were “F” and “A”, respectively. Further, the “Challenge test result C.a.” value is “F” in the test with Candida albicans (C.a.) (concentration 0.25%) and “A” with Candida albicans (C.a.) (concentration 0.5%). Further, the “Challenge test result S.a.” value in [3] (concentration 0.25%) is on record as “F”; in test [3] (concentration 0.5%), “B”. The “Challenge test result E.c.” value is “F” in the test on Escherichia coli (E.c.) (concentration 0.25%, pH 7); “F” in the test with Escherichia coli (E.c.) (concentration 0.5%, pH 7); “fails” with Escherichia coli (E.c.) (concentration 0.5%, pH 7, listed as Hydroxyacetophenone). In addition, the “Challenge test result A.b.” value in test [4] (concentration 0.25%) is given as “F”; in test [4] (concentration 0.5%), “A”.
Regarding `CC(=O)c1ccc(O)cc1` [10% Hydroxyacetophenone solution, 4-Hydroxyacetophenone], the MIC in [5] (DSM786, read-out: MIC) was 8000 µg/mL; in test [6] (DSM799, read-out: MIC), greater than 10000 µg/mL; in test [7] (DSM7288, read-out: MIC), 4000 µg/mL (≈ 29.4 mM); in [8] (IMI45543, read-out: MIC) it was 6000 µg/mL; in [9] (DSM1988, read-out: MIC), 8000 µg/mL; in test [10] (IMI322444, read-out: MIC), 3000 µg/mL. For the same compound, the MIC in [11] (Talaromyces minioluteus, ATCC52427, read-out: MIC) is 6000 µg/mL; in test [12], greater than 10000 µg/mL; in test [13] (DSM1386, read-out: MIC), 10000 µg/mL; in [14] (DSM70449, read-out: MIC) it was 8000 µg/mL.
Consider “Sorbitan caprylate [90% Velsan SC solution]”, for which the MIC in [5] is 2000 ppm; in test [6] it was 750 ppm; in [7], 6000 ppm; in test [8], 1500 ppm; in test [9], 4000 ppm; in test [10], 1500 ppm. Besides, the MIC worked out at 1500 ppm in [11], 1500 ppm in test [13] and 3000 ppm in test [14].
In the case of Sorbitan caprylate [Velsan SC], the “Ability to preserve the formulation” value in test [1] (alone, entries 8-11 (0.5%; Velsan CGE 0.5% and 0.25%)) is reported as “not sufficient to preserve the formulation”. The “Challenge test result P.a.” value in test [2] (concentration 0.5%) is recorded as “F”. Besides, the “Challenge test result C.a.” value in the test on Candida albicans (C.a.) (concentration 0.5%) is “F”. The “Challenge test result S.a.” value in test [3] (concentration 0.5%) was “B”. Moreover, the “Challenge test result E.c.” value with Escherichia coli (E.c.) (concentration 0.5%, pH 7) is given as “F”. The “Challenge test result A.b.” value in [4] (concentration 0.5%) is on record as “B”.
